Read-outs that look alike come from different tables or passages of the source. Marks after values point to notes of the source that are not given here.
Tests used:
[1] = HepG2 cytotoxicity, LDH release assay; conditions: human, HepG2 cells
Experimental: (§1) Furthermore, compounds were evaluated against late (stage IV/V) gametocytes from PfNF54 (PfNF54 LGc), with viability detected with PrestoBlue,[15] and orthogonally evaluated for toxicity against a human hepatocellular carcinoma line, HepG2.[16]
(§2) Human hepatocellular liver carcinoma cells (HepG2) were cultivated in vitro in Dulbecco’s Modified Eagle’s Medium (DMEM) supplemented with 10% (v/v) heat inactivated fetal bovine serum and 1% (v/v) penicillin/streptomycin.[14] Cells were detached with trypsin treatment at 80% confluency and were seeded in 96-well plates to adhere for 24 h under 5% CO2, humid (95%) conditions. Cells were subsequently exposed to drug pressure for 24 h and cytotoxicity was then determined using the lactate dehydrogenase (LDH) release assay through the colorimetric detection at 450 nm, as previously outlined.[4],[16]

PfNF54 ABS [2] = assay: SYBR Green I proliferation assay, asexual blood stages, drug-sensitive NF54; conditions: Plasmodium falciparum, NF54, 96 h, read-out: Pf ABS IC50 NF54
Experimental: (§3) P. falciparum asexual parasites were cultured from drug-sensitive NF54 (PfNF54) and multidrug resistant strains PfK1. Parasites were maintained in human erythrocytes (O+, suspended at 5% hematocrit) in RPMI-1640 culture medium (23.81 mM sodium bicarbonate, 0.024 mg/mL gentamycin, 25 mM HEPES pH 7.5, 0.2% D-glucose, 0.2 mM hypoxanthine and Albumax II) under hypoxic conditions (5% CO2, 5% O2 and 90% N2) with moderate shaking (60 rpm) at 37 °C. Cultures were synchronized to >95% in the ring stage with 5% (w/v) D-sorbitol treatment.[28]
(§4) Activity against the asexual stage of P. falciparum was evaluated using the SYBR Green I-based fluorescence assay as previously described.[4],[16] Cellular proliferation was measured on synchronized in vitro PfNF54 ring-stage parasites (1% parasitemia, 2% hematocrit), following drug pressure for 96 h. Chloroquine was used as the positive drug control for complete inhibition of parasite proliferation.

[3] = test system: PfNF54 LGc (stage IV/V gametocytes); assay: PrestoBlue late-stage gametocyte viability assay; type: cell-based, Plasmodium falciparum; conditions: for IC50: Plasmodium falciparum, read-out: PfNF54 LGc IC50
Experimental: Gametocytogenesis was induced on highly synchronized (>95%) asexual ring-stage parasites from PfNF54 at 0.5% parasitemia and 6% hematocrit and thereafter maintained in glucose-deprived media as previously described.[29],[15] After 3 days, the hematocrit was decreased to 4%. Parasites were maintained in complete culture media supplemented with 50 mM N-acetyl-glucosamine 5–10 days post induction to inhibit proliferation of residual asexual blood stages. Gametocyte progression and morphology was also monitored microscopically using Giemsa-stained thin smears.
activity against the sexual stages of P. falciparum was evaluated using the PrestoBlue fluorescence assay as previously described.[4] Activity was measured on PfNF54 stage IV/V gametocytes (2% gametocytemia, 5% hematocrit) previously seeded with compounds (in non-lethal DMSO) for 48 h drug pressure, after which PrestoBlue reagent was added and incubated for 2 h. Fluorescence was detected in the supernatant at 612 nm. Dihydroartemisinin (DHA) was used as a positive drug control.

HepG2 cells [4] = test system: HepG2 cells; parameters: method as in Stampolaki et al.[5]; conditions: compound at 20 μM; ref Stampolaki et al.[5]; cited from earlier work
PfNF54 ABS [5] = test system: PfNF54 ABS; parameters: method as in Stampolaki et al.[5]; conditions: drug-sensitive NF54; ref Stampolaki et al.[5]; read-out: Pf ABS IC50 NF54; cited from earlier work
HepG2 cells [6] = assay: HepG2 cytotoxicity, LDH release assay; conditions: Homo sapiens, HepG2, 24 h, read-out: HepG2 EC50
Experimental: as §1, §2

oocyst formation = assay: Standard membrane feeding assay (SMFA), oocyst formation in Anopheles coluzzii; type: in vivo; conditions: Plasmodium falciparum
Experimental: Transmission-blocking activity was confirmed in the standard membrane feeding assay (SMFA), by determining transmission-reducing activity (TRA; reduction in oocyst counts) and transmission-blocking activity (TBA, reduction in oocyst prevalence), 8–10 days after feeding female mosquitoes on gametocyte-infected blood, treated with selected compounds (at 2 μM).
SMFA was performed using glass feeders as is outlined.[4],[16] Once again, mature stage V gametocytes (>95%) were treated with 2 μM of each compound for 48 h prior to feeding. Anopheles coluzzii females were allowed to feed on gametocyte cultures (1.5–2.5% gametocytemia, 50% hematocrit in A+ male serum with fresh erythrocytes) in the dark for 40 min. All unfed or partially fed mosquitoes were removed, and remaining females housed for 8–10 days. Mosquitoes were dissected to remove midguts, and oocysts counted under bright field illumination at ×20–×40 magnification. The percentage of block in transmission (transmission-blocking activity; TBA) and the percentage of reduction in the number of oocysts (transmission-reducing activity; TRA) were calculated after normalizing to the control untreated sample.

male gametes (PfNF54) = assay: Male gamete exflagellation inhibition assay (EIA); type: cell-based; conditions: Plasmodium falciparum, 48 h, read-out: male gamete inhibition %
Experimental: The EIA was performed using video microscopy by capturing the movement of exflagellation centers over time as previously described.[4],[30] Mature PfNF54 stage V gametocytes (>95%;) were treated with 2 μM of drug for 48 h before the activation of exflagellation, without removing drug pressure. Movement was semi-automatically quantified from 15 videos of 8–10 s each between 15 and 22.5 min after incubation. Each video was analyzed using ICY-bio image analysis software.

HepG2 cells [7] = test system: HepG2 cells
Experimental: as §1, §2

PfK1 = assay: SYBR Green I proliferation assay, asexual blood stages, multidrug-resistant K1; conditions: Plasmodium falciparum, K1, read-out: Pf ABS IC50 K1
Experimental: as §3, §4

female gametes = assay: Female gamete inhibition assay; type: cell-based, Plasmodium falciparum; parameters: concentration or dose not given beside the values
Experimental: Similarly, female gametes were activated as described previously.[31] Monoclonal anti-Pfs antibody conjugated to FITC was used to detect female gametes. Image acquisition was performed using a Zeiss Axio Lab.A1 epifluorescence microscope with a 100/1.4 numerical aperture (NA) oil immersion. Thirty images were captured per sample and analyzed manually.

[8] = stage IV/V gametocytes, 48 h drug pressure
[9] = 48 h drug treatment at 2 μM, single biological repeat, read-out: oocyst formation (% inhibition) TBA
[10] = 48 h drug treatment at 2 μM, single biological repeat, read-out: oocyst formation (% inhibition) TRA

Row | Compound | viability at 24 h, 20 µM [1] [%] | IC50 (PfNF54 ABS [2]) [nM] | IC50 [3, 8] [nM] | IC50 (PfK1) [nM] | further results
1 | CC(C)=CCC/C(C)=C/COCCNC1C2CC3CC(C2)CC1C3 (stereo not shown) [Compound 15] | 100 | 2460 ± 140 | > 10000 | – | –
2 | CC(C)=CCC/C(C)=C/CNCCOC1C2CC3CC(C2)CC1C3 (stereo not shown) [Compound 16] | 99 | 3780 ± 750 | > 10000 | – | –
3 | CC(C)=CCC/C(C)=C/CNCC(=O)NC1C2CC3CC(C2)CC1C3 (stereo not shown) [Compound 17] | – | – | > 10000 | – | HepG2 % viability (HepG2 cells [4]): 100%^b; IC50 (PfNF54 ABS [5]): 6490 ± 330 nM
4 | CC(C)=CCC/C(C)=C/CNC(=O)CNC1C2CC3CC(C2)CC1C3 (stereo not shown) [Compound 18] | – | – | – | – | HepG2 % viability (HepG2 cells [4]): 99%^b; IC50 ([3]; 48 h): > 10000 nM
5 | CC(C)CCCC(C)CCCC(C)CCNCCNC1C2CC3CC(C2)CC1C3 (stereo not shown) [Compound 20] | – | 390 ± 150 | 540 ± 40 | 390 ± 10 | EC50 (HepG2 cells [6]): 5110 ± 850 nM; inhibition at 2 µM (oocyst formation; [9]): 54%; inhibition at 2 µM (oocyst formation; [10]): 75%; inhibition at 2 µM (male gametes (PfNF54); 2 μM): 95 ± 5%; cytotoxicity to HepG2 cells (in words) (HepG2 cells [7]): moderately cytotoxic; female gamete inhibition % (female gametes): 77.52 ± 10.85%
6 | CC(C)=CCC/C(C)=C/CC/C(C)=C/CNCCNC1C2CC3CC(C2)CC1C3 (stereo not shown) [Compound 21] | 75 | 650 | 510 ± 70 | 1820 ± 310 | inhibition at 2 µM (oocyst formation; 48 h, read-out: oocyst formation (% inhibition) TBA): 20%; inhibition at 2 µM (oocyst formation; 48 h, read-out: oocyst formation (% inhibition) TRA): 56%; inhibition at 2 µM (male gametes (PfNF54)): 95.5 ± 4.55%; female gamete inhibition % (female gametes): 86.30 ± 2.58%
7 | c1ccc(CCNCCNC2C3CC4CC(C3)CC2C4)cc1 (stereo not shown) [Compound 22] | 100 | 730 ± 40 | 740 ± 150 | 1700 ± 210 | inhibition at 2 µM (oocyst formation; [9]): 80%; inhibition at 2 µM (oocyst formation; [10]): 89%; inhibition at 2 µM (male gametes (PfNF54); 2 μM): 92.1 ± 1.21%; cytotoxicity to HepG2 cells (in words) (HepG2 cells [7]): moderately cytotoxic; fold loss in gametocyte activity ([3]; LGc, compared to 1): 7 fold; female gamete inhibition % (female gametes): 85.40 ± 7.62%
8 | c1ccc(Oc2cccc(CNCCNC3C4CC5CC(C4)CC3C5)c2)cc1 (stereo not shown) [Compound 23] | – | 960 ± 10 | 1510 ± 420 | 4140 ± 1370 | EC50 (HepG2 cells [6]): 20000 ± 5690 nM; cytotoxicity to HepG2 cells (in words) (HepG2 cells [7]): moderately cytotoxic
9 | C1CCC(CCNCCNC2C3CC4CC(C3)CC2C4)CC1 (stereo not shown) [Compound 24] | 27 | 1240 ± 80 | > 10000 | – | –
10 | c1ccc(CNCCNC2C3CC4CC(C3)CC2C4)cc1 (stereo not shown) [Compound 25] | 91 | 3990 ± 280 | 110 ± 60 | – | –
11 | CC(C)=CCNCCNC1C2CC3CC(C2)CC1C3 (stereo not shown) [Compound 26] | 99 | 4280 ± 360 | 370 ± 60 | – | –
